Measured values taken from publication PMC11729550, “Discovery of indole analogue Tc3 as a potent pyroptosis inducer and identification of its combination strategy against hepatic carcinoma” (Theranostics, 2025).

Tested on: ROS
Test: Reactive Oxygen Species detection (DCFH-DA)
Format: cell-based, human
Settings: HepG2 cells, 24 h
Procedure: The hepatic carcinoma cells were seeded in 6-well plates and treated with Tc3 for 24 h. The cells were then stained by DCFH-DA (10 μM) for 20 min, washed with PBS buffer for two times, and the fluorescence intensity was captured by a confocal microscope (Leica, TCS SP8).

Compound: CC(C)[C@H](N)C(=O)NCCCn1cc(/C=C2\S/C(=N\c3ccc(N4CCOCC4)cc3)N(Cc3ccc(F)cc3)C2=O)c2ccccc21 [Tc3]
- intracellular ROS (DCFH-DA probes): observably up-regulated
